Results as given in article PMC6588697, “Lugdunin amplifies innate immune responses in the skin in synergy with host- and microbiota-derived factors” (Nature Communications, 2019).
Several values for one entry are separate records, joined by “and”; a condition that tells them apart may be missing. Identical values can stand only once.

B1: IL-1: interleukin-1α, 10 ng/mL, control in Fig 4b (protein, UniProt P01583 113-271, looked up)
Interleukin-1 alpha: SAPFSFLSNVKYNFMRIIKYEFILNDALNQSIIRANDQYLTAAALHNLDEAVKFDMGAYKSSKDDAKITVILRISKTQLYVTAQDEDQPVLLKEMPEIPKTITGSETNLLFFWETHGTKNYFTSVAHPNLFIATKQDYWVCLAGGPPSITDFQILENQA

Columns and labels:
Format in all cases: cell-based, human
HTEpCs = assay: CXCL8 expression in HTEpCs (qRT-PCR); conditions: 5 h, 100 ng/mL Pam2Cys or Pam3Cys, two technical replicates, sheet Supp Fig 1g
Protocol: (§1) Quantitative reverse transcription-polymerase chain reaction (qRT-PCR) was performed in 10 µL reaction volume with SYBR^TM Green PCR Master Mix (Thermo Fisher) according to the manufacturer’s instructions using a LightCycler 96 (Roche Life Science). The initial denaturation step was at 95 °C for 5 min, followed by 40 cycles with 10 s each for the denaturation step at 95 °C, the annealing at individual temperature, and the elongation at 72 °C. Primer sequences and respective annealing temperatures are listed in Supplementary Table 1. […]
(§2) 31 g+h+i: HNEpCs (b), HTEpCs (c) or PBMCs (d) were treated with increasing
(§3) 32 concentrations of lugdunin (grey bars) or 100 ng/mL Pam2Cys or Pam3Cys (white
(§4) 33 bars) as positive controls for 5 hours and subsequently expression of CXCL8 was
(§5) 34 analyzed and normalized to actin. Black bar: medium control. Shown is one
(§6) 35 representative experiment of three independent experiments with two technical
(§7) 36 replicates +/-s.e.m. Significant differences to control treatments were analyzed by
(§8) 37 ordinary one-way ANOVA followed by Dunnett’s multiple comparisons test (*P<0.05; […]

PHKs = assay: CXCL8 expression in PHKs (qRT-PCR, normalized to actin); conditions: PHKs, 5 h
Protocol: Fig. 1 Lugdunin sensitizes epithelial cells for innate immune defense. a Primary human keratinocytes (PHKs) were pretreated with S. epidermidis conditioned medium (CM), indicated lugdunin concentrations, or the combination of both for 20 h. Subsequently, cells were infected with S. aureus for 1.5 h followed by cell lysis and determination of colony-forming units (CFUs). Shown is one representative experiment of three independent experiments with six technical replicates ± s.e.m. n.s., not significant. b Dorsal skin of mice was pretreated with S. epidermidis CM, 1.5 µg lugdunin alone or in combination with S. epidermidis CM for 24 h. Subsequently, S. aureus CFUs were determined. Horizontal lines represent the mean of each group ± s.e.m. c PHKs were treated with 2 μM lugdunin or with S. epidermidis CM alone or in combination for 20 h and subsequently expression of indicated antimicrobial peptides (AMPs) (respective protein names in brackets) was analyzed and normalized to actin. Shown is one representative experiment of three independent experiments with two technical replicates ± s.e.m. d PHKs were treated with 2 µM lugdunin or 100 ng/mL Pam2Cys for 5 h and subsequently the concentration of indicated cytokines in the supernatant was analyzed by LEGENDplex^TM (BioLegend). Shown is one representative experiment of three independent experiments with two technical replicates ± s.e.m. e PHKs were treated with increasing concentrations of lugdunin or 100 ng/mL Pam2Cys or Pam3Cys for 5 h and subsequently expression of chemokine (C-X-C motif) ligand 8 (CXCL8) was analyzed and normalized to actin. Shown is one representative experiment of three independent experiments, each with two technical replicates ± s.e.m. f, g Indicated cells were treated with 2 µM lugdunin or 100 ng/mL Pam2Cys as a positive control for 5 h and subsequently the concentration of CXCL8 (f) and interleukin-1α (IL-1α) (g) in the supernatant was analyzed by LEGENDplex^TM (BioLegend) and enzyme-linked immunosorbent assay (ELISA) (R&D Systems). Shown is one representative experiment of three independent experiments with two technical replicates ± s.e.m. Significant differences to control treatments were analyzed by ordinary one-way analysis of variance (ANOVA) followed by Dunnett’s multiple comparisons test (*P < 0.05; **P < 0.01; ***P < 0.001; ****P < 0.0001). n.d. = not detected. Source data are provided as a Source Data file
Fig. 4 Lugdunin amplifies the commensal-induced chemokine (C-X-C motif) ligand (CXCL8) induction. a Primary human keratinocytes (PHKs) were either treated with 2 μM of human antimicrobial peptides (AMPs) (black bars) or lugdunin (blue bars), or 0.8 μM (pro)-gallidermin or nisin (black bars), or in combination with S. epidermidis conditioned medium (CM) (gray and red striped bars) for 5 h, and subsequently expression of CXCL8 was analyzed and normalized to actin. Shown is one representative experiment of three independent experiments with two technical replicates ± s.e.m. b PHKs were treated with 2 μM human AMPs, 2 μM lugdunin, 0.8 μM of the other bacteriocins (gray bars) or the correspondent peptide combinations (white bars), or 50 ng/mL Pam2Cys, 10 ng/mL IL-1α, or S. epidermidis CM as controls (black bars), for 5 h and subsequently expression of CXCL8 was analyzed and normalized to actin. Shown is one representative experiment of three independent experiments with two technical replicates ± s.e.m. Significant differences to control treatments were analyzed by ordinary one-way analysis of variance (ANOVA) followed by Dunnett’s multiple comparisons test (***P < 0.001; ****P < 0.0001). Source data are provided as a Source Data file
After 5 h or 20 h of peptide treatment, PHKs were washed once with PBS, followed by the addition of RNA lysis buffer directly into the well. Total RNA was extracted using the Nucleospin RNA Kit (Macherey-Nagel) according to the manufacturer’s protocol. […]

HNEpCs = assay: CXCL8 expression in HNEpCs (qRT-PCR); conditions: 5 h, 100 ng/mL Pam2Cys or Pam3Cys, two technical replicates, sheet Supp Fig 1f
Protocol: as §1, §2, §3, §4, §5, §6, §7, §8

PBMCs = assay: CXCL8 expression in PBMCs (qRT-PCR); conditions: 5 h, 100 ng/mL Pam2Cys or Pam3Cys, two technical replicates, sheet Supp Fig 1h
Protocol: Quantitative reverse transcription-polymerase chain reaction (qRT-PCR) was performed in 10 µL reaction volume with SYBR^TM Green PCR Master Mix (Thermo Fisher) according to the manufacturer’s instructions using a LightCycler 96 (Roche Life Science). The initial denaturation step was at 95 °C for 5 min, followed by 40 cycles with 10 s each for the denaturation step at 95 °C, the annealing at individual temperature, and the elongation at 72 °C. Primer sequences and respective annealing temperatures are listed in Supplementary Table 1.
Human PBMCs were isolated from the peripheral blood of healthy donors upon obtaining informed consent by Ficoll-Histopaque (Biochrom) gradient centrifugation. Cells were washed once in PBS and adjusted to a cell number of 1 × 10^6 mL^−1 in RPMI-1640 medium (Gibco/Life Technologies) containing 10% FBS (Biochrom/Merck Millipore). […]
as §2, §3, §4, §5, §6, §7, §8

Row | Molecule | CXCL8 fold induction (HTEpCs) | CXCL8 expression normalized to actin (PHKs; 100 ng/mL Pam2Cys or Pam3Cys, medium = 1, technical replicates, Fig 1e) | CXCL8 fold induction (HNEpCs) | CXCL8 fold induction (PBMCs) | CXCL8 expression normalized to actin (PHKs; 2 µM human AMPs, 2 µM lugdunin, 0.8 µM other bacteriocins or their combinations, 50 ng/mL Pam2Cys, 10 ng/mL IL-1α, S. epidermidis CM, two technical replicates, Fig 4b)
1 | Pam3Cys [reference compound] | 3.972 and 3.732 | 1.261 and 1.177 | 22.316 and 30.696 | 2.838 and 2.819 | 
2 | B1 |  |  |  |  | 153.545 and 150.36
